Experimental data as given in PubChem BioAssay (NCI).
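1) Cells in 96-well plates. 2) Compound, 48 h, 5 concentrations. 3) Linear interpolation between surrounding doses. 4) Unreached endpoint = highest concentration. TGI: total growth inhibition.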

Key:
Test in all cases: NCI tumour cell line growth inhibition, 48 h
786-0 renal = system: 786-0 renal
UACC-257 melanoma = system: UACC-257 melanoma
DMS 273 small cell lung = system: DMS 273 small cell lung
SK-MEL-2 melanoma = system: SK-MEL-2 melanoma
M19-MEL melanoma = system: M19-MEL melanoma
A549 NSCLC = system: A549 NSCLC
MALME-3M melanoma = system: MALME-3M melanoma
KM12 colon = system: KM12 colon
COLO 205 colon = system: COLO 205 colon
NCI-H460 lung = system: NCI-H460 lung
HOP-92 NSCLC = system: HOP-92 NSCLC
U251 CNS = system: U251 CNS
SF-539 CNS = system: SF-539 CNS
HL-60(TB) leukemia = system: HL-60(TB) leukemia
SF-295 CNS = system: SF-295 CNS
LOX IMVI melanoma = system: LOX IMVI melanoma
HCC-2998 colon = system: HCC-2998 colon
LXFL 529 NSCLC = system: LXFL 529 NSCLC
RXF 393 renal = system: RXF 393 renal
CCRF-CEM leukemia = system: CCRF-CEM leukemia
UO-31 renal = system: UO-31 renal
SK-MEL-28 melanoma = system: SK-MEL-28 melanoma
OVCAR-4 ovarian = system: OVCAR-4 ovarian
RPMI-8226 leukemia = system: RPMI-8226 leukemia
SNB-78 CNS = system: SNB-78 CNS
HCT-15 colon = system: HCT-15 colon
HT29 colon = system: HT29 colon
SK-OV-3 ovarian = system: SK-OV-3 ovarian
SNB-75 CNS = system: SNB-75 CNS
DLD-1 colon = system: DLD-1 colon
NCI-H226 lung = system: NCI-H226 lung
SF-268 CNS = system: SF-268 CNS
OVCAR-5 ovarian = system: OVCAR-5 ovarian
HCT-116 colon = system: HCT-116 colon
OVCAR-8 ovarian = system: OVCAR-8 ovarian
SR leukemia = system: SR leukemia
IGROV1 ovarian = system: IGROV1 ovarian
K-562 leukemia = system: K-562 leukemia
SN12C renal = system: SN12C renal
MOLT-4 leukemia = system: MOLT-4 leukemia
KM20L2 colon = system: KM20L2 colon
UACC-62 melanoma = system: UACC-62 melanoma
M14 melanoma = system: M14 melanoma
SW-620 colon = system: SW-620 colon
OVCAR-3 ovarian = system: OVCAR-3 ovarian
EKVX NSCLC = system: EKVX NSCLC
ACHN renal = system: ACHN renal
SNB-19 CNS = system: SNB-19 CNS
HOP-18 NSCLC = system: HOP-18 NSCLC
NCI-H23 lung = system: NCI-H23 lung
TK-10 renal = system: TK-10 renal
CAKI-1 renal = system: CAKI-1 renal
SK-MEL-5 melanoma = system: SK-MEL-5 melanoma
HOP-62 NSCLC = system: HOP-62 NSCLC

Measured: TGI

CCOC(=O)NC(=O)c1cn(CCN2CCN(C(=O)CCCCCCCCCCNc3ncnc4nc[nH]c34)CC2)c(=O)[nH]c1=O
> 100 µM: 786-0 renal | UACC-257 melanoma | DMS 273 small cell lung | SK-MEL-2 melanoma | M19-MEL melanoma | A549 NSCLC | MALME-3M melanoma | KM12 colon | COLO 205 colon | NCI-H460 lung | HOP-92 NSCLC | U251 CNS | SF-539 CNS | HL-60(TB) leukemia | SF-295 CNS | LOX IMVI melanoma | HCC-2998 colon | LXFL 529 NSCLC | RXF 393 renal | CCRF-CEM leukemia | UO-31 renal | SK-MEL-28 melanoma | OVCAR-4 ovarian | RPMI-8226 leukemia | SNB-78 CNS | HCT-15 colon | HT29 colon | SK-OV-3 ovarian | SNB-75 CNS | DLD-1 colon | NCI-H226 lung | SF-268 CNS | OVCAR-5 ovarian | HCT-116 colon | OVCAR-8 ovarian | SR leukemia | IGROV1 ovarian | K-562 leukemia | SN12C renal | MOLT-4 leukemia | KM20L2 colon | UACC-62 melanoma | M14 melanoma | SW-620 colon | OVCAR-3 ovarian | EKVX NSCLC | ACHN renal | SNB-19 CNS | HOP-18 NSCLC | NCI-H23 lung | TK-10 renal | CAKI-1 renal | SK-MEL-5 melanoma | HOP-62 NSCLC
